The target in assay [1] is T1, hTLR7 (human Toll-like receptor 7) (Homo sapiens, UniProt Q9NYK1).
T1 construct: host or cells: HEK-Blue hTLR7 (HEK293-derived reporter cells)
T1 sequence (Q9NYK1 27-1049): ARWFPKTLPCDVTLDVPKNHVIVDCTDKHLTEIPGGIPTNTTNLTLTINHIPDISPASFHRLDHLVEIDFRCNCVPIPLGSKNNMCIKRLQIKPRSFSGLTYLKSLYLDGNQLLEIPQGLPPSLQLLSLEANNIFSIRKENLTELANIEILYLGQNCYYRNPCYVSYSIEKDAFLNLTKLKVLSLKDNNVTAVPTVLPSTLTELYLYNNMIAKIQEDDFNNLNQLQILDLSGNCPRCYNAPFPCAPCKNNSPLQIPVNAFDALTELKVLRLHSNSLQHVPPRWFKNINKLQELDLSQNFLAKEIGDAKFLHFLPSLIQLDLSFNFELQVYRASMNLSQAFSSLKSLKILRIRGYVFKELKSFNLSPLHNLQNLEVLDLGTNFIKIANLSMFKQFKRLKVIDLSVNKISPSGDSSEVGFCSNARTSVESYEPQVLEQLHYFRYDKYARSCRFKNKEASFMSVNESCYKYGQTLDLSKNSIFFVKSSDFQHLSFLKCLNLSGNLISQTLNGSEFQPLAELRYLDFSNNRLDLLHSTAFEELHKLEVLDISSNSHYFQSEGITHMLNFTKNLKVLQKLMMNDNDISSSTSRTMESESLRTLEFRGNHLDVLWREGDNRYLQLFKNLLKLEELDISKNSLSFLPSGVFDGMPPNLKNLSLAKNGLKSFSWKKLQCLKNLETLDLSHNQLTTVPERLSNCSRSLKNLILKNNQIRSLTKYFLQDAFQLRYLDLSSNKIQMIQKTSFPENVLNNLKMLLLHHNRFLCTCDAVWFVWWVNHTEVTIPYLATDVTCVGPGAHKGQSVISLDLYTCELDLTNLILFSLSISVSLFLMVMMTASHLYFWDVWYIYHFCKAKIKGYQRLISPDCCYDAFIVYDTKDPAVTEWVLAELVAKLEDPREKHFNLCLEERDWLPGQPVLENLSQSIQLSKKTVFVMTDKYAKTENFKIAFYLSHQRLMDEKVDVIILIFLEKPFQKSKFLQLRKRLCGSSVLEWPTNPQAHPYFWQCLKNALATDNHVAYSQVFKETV
Nature of the assay: hTLR7 cell assay (HEK-Blue hTLR7 reporter cells). The class given is cell-based. Particulars: 24 hours, OD 650 nm. As to the method:
(§1) The payload compounds of Formula (II′) were assayed to evaluate their agonistic activity on hTLR7 (human Toll-like receptor 7) and hTLR8 (human Toll-like receptor 8). Reporter cells lines (HEK-Blue hTLR7 and HEK-Blue hTLR8) were obtained from InvivoGen. Cells were cryopreserved in liquid nitrogen per supplier's instruction. Upon test, the cells were thawed, passaged and cultured in the growth media of DMEM supplemented with 10% fetal bovine serum, 1×NEAA, 1 mM Pyruvate, 2 mM glutamine, […] in the presence of the following antibiotics, as shown as Table 1. Test compounds (at desired concentrations diluted) were added to the 96-well assay plate, 0.5 μL per well. Reporter cells were harvested from the tissue culture flasks by incubation in PBS at 37° C. for two minutes after the media in the flask is removed and cells rinsed with PBS. Cells were counted and diluted in the HEK-Blue Detection media at 50000 cells/mL and incubated for 24 hours at 37° C., in a 5% CO2 humidified incubator. Then 20 μL of cell supernatant were added to the assay plate containing the 180 µL of QUANTI-Blue, incubated for 1 hour at 37° C. Optical density at 650 nm was analyzed using an Envision (Perkin Elmer) plate reader.

For assay [2], the target named is T2, hTLR8 (human Toll-like receptor 8) (Homo sapiens, UniProt Q9NR97).
T2 construct: host or cells: HEK-Blue hTLR8 (HEK293-derived reporter cells)
T2 sequence (Q9NR97 27-1041): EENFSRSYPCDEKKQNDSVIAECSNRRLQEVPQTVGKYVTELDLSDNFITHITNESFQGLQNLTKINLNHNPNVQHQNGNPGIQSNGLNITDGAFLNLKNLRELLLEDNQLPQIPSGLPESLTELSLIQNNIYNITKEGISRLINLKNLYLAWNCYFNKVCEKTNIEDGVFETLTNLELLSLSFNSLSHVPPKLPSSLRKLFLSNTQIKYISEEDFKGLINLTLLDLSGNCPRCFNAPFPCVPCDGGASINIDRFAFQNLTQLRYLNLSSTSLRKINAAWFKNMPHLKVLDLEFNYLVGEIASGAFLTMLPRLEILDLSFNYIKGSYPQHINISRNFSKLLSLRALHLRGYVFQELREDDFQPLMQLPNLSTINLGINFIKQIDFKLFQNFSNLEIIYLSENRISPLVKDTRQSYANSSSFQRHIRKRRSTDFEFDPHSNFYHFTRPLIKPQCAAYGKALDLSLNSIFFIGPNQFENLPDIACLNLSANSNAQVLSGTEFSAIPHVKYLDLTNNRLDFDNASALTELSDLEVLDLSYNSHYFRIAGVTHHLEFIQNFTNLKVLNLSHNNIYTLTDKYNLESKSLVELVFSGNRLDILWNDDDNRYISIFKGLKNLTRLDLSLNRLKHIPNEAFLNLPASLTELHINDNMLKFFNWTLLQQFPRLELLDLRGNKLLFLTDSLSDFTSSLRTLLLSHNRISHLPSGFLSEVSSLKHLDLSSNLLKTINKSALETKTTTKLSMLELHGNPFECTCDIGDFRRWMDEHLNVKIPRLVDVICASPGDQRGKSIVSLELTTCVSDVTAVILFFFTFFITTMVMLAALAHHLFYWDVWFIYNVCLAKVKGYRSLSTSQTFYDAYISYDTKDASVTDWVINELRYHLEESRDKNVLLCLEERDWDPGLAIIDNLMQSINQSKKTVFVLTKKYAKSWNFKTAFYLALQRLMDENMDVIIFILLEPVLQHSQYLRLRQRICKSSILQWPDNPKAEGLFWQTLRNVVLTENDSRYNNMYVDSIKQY
Nature of the assay: hTLR8 cell assay (HEK-Blue hTLR8 reporter cells). The class given is cell-based. As to conditions: 24 hours, OD 650 nm. The procedure: as §1

For the compound `CCOCc1nc2c(N)nc3cc(Cc4ccccc4)ccc3c2n1CC(C)(C)OCCCN` [Compound 33], the EC50 (in general, the concentration at which the effect is half-maximal) fell in the range of 1 to 10 µM in assay [1] and 5 to 20 µM in assay [2].

`CCOCc1nc2c(N)nc3cc(Cc4ccc(CC(N)=O)cc4)ccc3c2n1CC(C)(C)OCCN` [Compound 27, 2-[4-({4-amino-1-[2-(2-aminoethoxy)-2-methylpropyl]-2-(ethoxymethyl)imidazo[4,5-c]quinolin-7-yl}methyl)phenyl]acetamide]: the values for the EC50 in assay [1] and in assay [2] were 1 to 10 µM and greater than 20 µM, respectively.

For `CCOCc1nc2c(N)nc3cc(Cc4cccc(CCN)c4)ccc3c2n1CC(C)(C)O` [Compound 5, 1-(4-amino-7-(3-(2-aminoethyl)benzyl)-2-(ethoxymethyl)-1H-imidazo[4,5-c]quinolin-1-yl)-2-methylpropan-2-ol], the EC50 in assay [1] was 1 to 10 µM; in assay [2] it was 5 to 20 µM.

Turning to `CCOCc1nc2c(N)nc3cc(Cc4ccccc4)ccc3c2n1Cc1ccc(CN)cc1` [Compound 43], the EC50 in assay [1] was less than 1 µM; in assay [2], 5 to 20 µM.

Regarding `CCCC(C)c1nc2c(N)nc3cc(Cc4ccc(CCCN)cc4)ccc3c2n1CC(C)(C)O` (centres unmarked) [Compound 11, 1-(4-amino-7-(4-(3-aminopropyl)benzyl)-2-(pentan-2-yl)-1H-imidazo[4,5-c]quinolin-1-yl)-2-methylpropan-2-ol], the results for the EC50 in assay [1] and in assay [2] were 1 to 10 µM and less than 5 µM, respectively.

On to `CCOCc1nc2c(N)nc3cc(Cc4ccc(CC(N)=O)cc4)ccc3c2n1CC(C)(C)O` [Compound 73, 2-(4-((4-amino-2-(ethoxymethyl)-1-(2-hydroxy-2-methylpropyl)-1H-imidazo[4,5-c]quinolin-7-yl)methyl)phenyl)acetamide], for which the EC50 in assay [1] is less than 1 µM; in assay [2], greater than 20 µM.

With `CCOCc1nc2c(N)nc3cc(Cc4ccccc4)ccc3c2n1CC(C)(C)NCCCN` [Compound 36, NJ-(1-(4-amino-7-benzyl-2-(ethoxymethyl)-1H-imidazo[4,5-c]quinolin-1-yl)-2-methylpropan-2-yl)propane-1,3-diamine], the EC50 is greater than 10 µM in assay [1] and greater than 20 µM in assay [2].

`CCOCc1nc2c(N)nc3cc(Cc4ccc(CCN(C)C)cc4)ccc3c2n1CC(C)(C)OCCN` [Compound 24, 1-(2-(2-aminoethoxy)-2-methylpropyl)-7-(4-(2-(dimethylamino)ethyl)benzyl)-2-(ethoxymethyl)-1H-imidazo[4,5-c]quinolin-4-amine]: the EC50 in assay [1] was greater than 10 µM; in assay [2], greater than 20 µM.

Take `CCCC(C)c1nc2c(N)nc3cc(Cc4ccccc4)ccc3c2n1Cc1ccc(CN)cc1` (centres unmarked) [Compound 42, 1-(4-(aminomethyl)benzyl)-7-benzyl-2-(pentan-2-yl)-1H-imidazo[4,5-c]quinolin-4-amine]: the figures for the EC50 in assay [1] and in assay [2] were 1 to 10 µM and less than 5 µM, respectively.

Turning to `CCCCc1nc2c(N)nc3cc(Cc4ccccc4)ccc3c2n1CC(C)(C)OCCN` [Compound 31], the EC50 in assay [1] was less than 1 µM; in assay [2], less than 5 µM.

In the case of `CCOCc1nc2c(N)nc3cc(Cc4ccc(CCN)cc4)ccc3c2n1CCNS(C)(=O)=O` [Compound 34, N-(2-(4-amino-7-(4-(2-aminoethyl)benzyl)-2-(ethoxymethyl)-1H-imidazo[4,5-c]quinolin-1-yl)ethyl)methanesulfonamide], the EC50 is greater than 10 µM in assay [1] and greater than 20 µM in assay [2].

Turning to `CCCC(C)c1nc2c(N)nc3cc(Cc4ccc(CCN)cc4)ccc3c2n1CC(C)(C)O` (centres unmarked) [Compound 8, 1-(4-amino-7-(4-(2-aminoethyl)benzyl)-2-(pentan-2-yl)-1H-imidazo[4,5-c]quinolin-1-yl)-2-methylpropan-2-ol], the EC50 in assay [1] is 1 to 10 µM; in assay [2], less than 5 µM.

Regarding `CCOCc1nc2c(N)nc3cc(Cc4ccc(CCN)cc4)ccc3c2n1Cc1ccc(CO)cc1` [Compound 45, (4-((4-amino-7-(4-(2-aminoethyl)benzyl)-2-(ethoxymethyl)-1H-imidazo[4,5-c]quinolin-1-yl)methyl)phenyl) methanol], the values for the EC50 in assay [1] and in assay [2] were 1 to 10 µM and greater than 20 µM, respectively.

For the compound `CCOCc1nc2c(N)nc3cc(Cc4ccc(C(=O)NCCN)cc4)ccc3c2n1CC(C)(C)O` [Compound 6, 4-((4-amino-2-(ethoxymethyl)-1-(2-hydroxy-2-methylpropyl)-1H-imidazo[4,5-c]quinolin-7-yl)methyl)-N-(2-aminoethyl)benzamide], the EC50 is greater than 10 µM in assay [1] and greater than 20 µM in assay [2].

Turning to `CCOCc1nc2c(N)nc3cc(Cc4ccccc4)ccc3c2n1CC(C)(C)N` [Compound 38, 1-(2-amino-2-methylpropyl)-7-benzyl-2-(ethoxymethyl)-1H-imidazo[4,5-c]quinolin-4-amine], the EC50 in assay [1] is greater than 10 µM; in assay [2], greater than 20 µM.

Turning to `CCOCc1nc2c(N)nc3cc(Cc4ccc(CCN)cc4)ccc3c2n1CC(C)(C)OCCO` [Compound 72, 2-((1-(4-amino-7-(4-(2-aminoethyl)benzyl)-2-(ethoxymethyl)-1H-imidazo[4,5-c]quinolin-1-yl)-2-methylpropan-2-yl)oxy)ethan-1-ol], the EC50 in assay [1] is less than 1 µM; in assay [2] it was greater than 20 µM.

`CCOCc1nc2c(N)nc3cc(Cc4ccc(CCN5CCCC5)cc4)ccc3c2n1CC(C)(C)OCCN` [Compound 25, 1-(2-(2-aminoethoxy)-2-methylpropyl)-2-(ethoxymethyl)-7-(4-(2-(pyrrolidin-1-yl)ethyl)benzyl)-1H-imidazo[4,5-c]quinolin-4-amine]: the EC50 in assay [1] was greater than 10 µM; in assay [2], greater than 20 µM.

`CCC[C@H](C)c1nc2c(N)nc3cc(Cc4ccccc4)ccc3c2n1CC(C)(C)OCCN` [Compound 29, (S)-1-(2-(2-aminoethoxy)-2-methylpropyl)-7-benzyl-2-(pentan-2-yl)-1H-imidazo[4,5-c]quinolin-4-amine]: the EC50 in assay [1] is greater than 10 µM; in assay [2] it was greater than 20 µM.

As for `CCCC(C)c1nc2c(N)nc3cc(Cc4cccc(CCCN)c4)ccc3c2n1CC(C)(C)O` (centres unmarked) [Compound 14, 1-(4-amino-7-(3-(3-aminopropyl)benzyl)-2-(pentan-2-yl)-1H-imidazo[4,5-c]quinolin-1-yl)-2-methylpropan-2-ol], the values for the EC50 in assay [1] and in assay [2] were 1 to 10 µM and 5 to 20 µM, respectively.

For the origin of these results see patent US20250325687A1, “CONJUGATE COMPRISING TOLL-LIKE RECEPTOR AGONIST” (MABSOFT THERAPEUTICS (SHANGHAI) CO., LTD., priority 2022, published 2025).
